The source of these data is patent publication US10947222B2, “Indole derivatives useful as inhibitors of diacylglyceride O-acyltransferase 2” (Merck Sharp & Dohme Corp., priority 2016, dated 2021).

Molecules are shown by their SMILES.

Chain of human DGAT2 (hDGAT2) (Q96PD7 whole entry): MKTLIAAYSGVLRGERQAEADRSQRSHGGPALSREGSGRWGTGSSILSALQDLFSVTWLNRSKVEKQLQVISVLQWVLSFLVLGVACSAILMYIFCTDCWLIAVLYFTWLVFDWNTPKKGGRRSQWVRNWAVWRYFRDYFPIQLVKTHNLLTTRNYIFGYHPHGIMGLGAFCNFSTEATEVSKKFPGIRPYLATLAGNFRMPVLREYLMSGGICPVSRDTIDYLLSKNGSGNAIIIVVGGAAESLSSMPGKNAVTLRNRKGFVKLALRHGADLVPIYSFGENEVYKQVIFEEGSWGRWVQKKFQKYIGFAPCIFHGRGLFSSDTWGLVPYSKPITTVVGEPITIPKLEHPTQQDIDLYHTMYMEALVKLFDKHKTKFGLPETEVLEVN

The target of this experiment is human DGAT2 (hDGAT2) (Homo sapiens (Human), UniProt Q96PD7). Briefly: DGAT2 enzymatic activity assay (triolein formation, LC/MS/MS). The format is biochemical. The following applies: Sf-9 membrane prep expressing hDGAT2; 25 μM diolein, 10 μM oleoyl-CoA; triolein by LC/MS/MS. The method, then:
Sf-9 insect cells were maintained in Grace's insect cell culture medium with 10% heated-inactivated fetal bovine serum, 1% Pluronic F-68 and 0.14 μg/ml Kanamycine sulfate in Erlenmeyer flasks at 28° C. in a shaker incubator. After infection with untagged baculovirus expressing human DGAT2 (hDGAT2) at multiplicity of infection (MOI) 0.1 for 48 hours, cells were harvested. Cell pellets were suspended in buffer containing 10 mM Tris-HCl (pH 7.5), 1 mM EDTA (pH 8.0), 250 mM sucrose and Complete Protease Inhibitor Cocktail (Roche Diagnostics Corp., Indianapolis, Ill.), and sonicated on ice. Membrane fractions were isolated by ultracentrifugation (100,000×g pellet), resuspended in the same buffer, and frozen (−80° C.) for later use. The protein concentration was determined with the BCA Protein Assay kit (Pierce Biotechnology Inc., Rockford, Ill.). Expression of protein levels was analyzed by immunoblotting with goat polyclonal DGAT2 antibody C-15 and donkey anti-goat IgG HRP (Santa Cruz Biotechnology, Inc., Santa Cruz, Calif.) followed by detection with ECL reagent (GE Healthcare, Piscataway, N.J.).
LC/MS/MS analyses were performed using Thermal Fisher's LX4-TSQ Vantage system. This system consists of an Agilent binary high-performance liquid chromatography (HPLC) pumps and a TSQ Vantage triple quadrupole MS/MS instrument. For each sample, 2 μL samples from the top organic layer of in-plate liquid-liquid extraction were injected onto a Thermo Betabasic C4 column (2.1 mm×20 mm, 5 μm particle size). The samples were then eluted using the following conditions; mobile phase: methanol/water with 0.1% ammonium format=92/8 (v/v), flow rate: 1 mL/min, temperature: 25 C. Data was acquired in positive mode using a heated electrospray ionization (HESI) interface. The operational parameters for the TSQ Vantage MS/MS instrument were a spray voltage of 3000 V, capillary temperature of 280° C., vaporizer temperature 400° C., shealth gas 60 arbitrary unit, Aux gas 40 arbitrary units, S-lens 113 and collision gas 0.16 Pascals. […] (SRM) chromatograms of triolein (Q1:902.9>Q3:602.3) and internal standard (Q1:902.9>Q3:602.3) were collected for 40 sec. The peak area was integrated by Xcalibur Quan software. The ratio between the triolein generated in the reaction and spiked in internal standard was used to generate percentage inhibition and IC50 values. Compound percentage inhibition was calculated by the following formula: Inhibition %/=1−[(compound response−low control)/(high control−low control)]×100%. Potent compounds were titrated and IC50 were calculated by 4 parameter sigmoidal curve fitting formula.
DGAT2 activity was determined by measuring the amount of enzymatic product triolein (1,2,3-Tri(cis-9-octadecenoyl)glycerol) using the membrane prep mentioned above. The assay was carried out in deep well 384 plates in a final volume of 40 μL at rt. The assay mixture contained the following: assay buffer (100 mM Tris.Cl, pH 7.0, 20 mM MgCl2, 5% ethanol), 25 μM of diolein, 10 μM of oleoyl-CoA and 10 ng/μL of DGAT2 membrane.
As for `O=C(NC1CCS(=O)(=O)C1)c1ccc2c(-c3ccccc3Cl)cn(-c3ccc(F)cc3)c2c1` (single isomer, unassigned) [Example 2-B, 3-(2-chlorophenyl)-N-(1,1-dioxidotetrahydrothiophen-3-yl)-1-(4-fluorophenyl)-1H-indole-6-carboxamide], 30 nM corresponded to half-maximal inhibition (IC50).
`O=C(NC1CCS(=O)(=O)C1)c1ccc2c(-c3c(F)cccc3Cl)cn(-c3ccc(F)cc3)c2c1` (racemic) [Example 49, 3-(2-chloro-6-fluorophenyl)-N-(1,1-dioxidotetrahydrothiophen-3-yl)-1-(4-fluorophenyl)-1H-indole-6-carboxamide (racemic)]: the IC50 amounted to 155 nM.
In the case of `CC1(NC(=O)c2ccc3c(-c4cccc(OC(F)F)c4)cn(-c4ncc(F)cn4)c3c2)CCS(=O)(=O)C1` (single isomer, unassigned; enantiomer b) [Example 18-B, 3-(3-(difluoromethoxy)phenyl)-1-(5-fluoropyrimidin-2-yl)-N-(3-methyl-1,1-dioxidotetrahydrothiophen-3-yl)-1H-indole-6-carboxamide (enantiomer B)] it was 0.91 nM; in that of `O=C(NC1CCS(=O)(=O)C1)c1ccc2c(-c3cc(Cl)ccn3)cn(-c3ccc(F)cc3)c2c1` (racemic) [Example 21, 3-(4-chloropyridin-2-yl)-N-(1,1-dioxidotetrahydrothiophen-3-yl)-1-(4-fluorophenyl)-1H-indole-6-carboxamide (racemic)], 252 nM; in that of `O=C(NC1CCS(=O)(=O)C1)c1ccc2c(-c3ccc(OC(F)F)cc3)cn(-c3ccc(F)cc3)c2c1` (racemic) [Example 57, 3-[4-(difluoromethoxy)phenyl]-N-(1,1-dioxidotetrahydrothiophen-3-yl)-1-(4-fluorophenyl)-1H-indole-6-carboxamide (racemic)], 562 nM.
Compound `N#Cc1cccc(-c2cn(-c3ccc(F)cc3)c3cc(C(=O)NC4CCS(=O)(=O)C4)ccc23)c1` (racemic) [Example 45, 3-(3-cyanophenyl)-N-(1,1-dioxidotetrahydrothiophen-3-yl)-1-(4-fluorophenyl)-1H-indole-6-carboxamide (racemic)] showed an IC50 of 13 nM.
`Cc1c(-c2ccccc2Cl)c2ccc(C(=O)NC3(C)CCS(=O)(=O)C3)cc2n1-c1ccc(F)cc1` (single isomer, unassigned; enantiomer b) [Example 8-B, 3-(2-chlorophenyl)-1-(4-fluorophenyl)-2-methyl-N-(3-methyl-1,1-dioxidotetrahydrothiophen-3-yl)-1H-indole-6-carboxamide (Enantiomer B)] yielded an IC50 of 692 nM.
In the case of `CC1(NC(=O)c2ccc3c(-c4cccc(OC(F)F)c4)cn(-c4ncc(F)cn4)c3c2)CCS(=O)(=O)C1` (single isomer, unassigned; enantiomer a) [Example 18-A, 3-(3-(difluoromethoxy)phenyl)-1-(5-fluoropyrimidin-2-yl)-N-(3-methyl-1,1-dioxidotetrahydrothiophen-3-yl)-1H-indole-6-carboxamide (enantiomer A)] it was 1.7 nM.
In turn, `CC1(NC(=O)c2ccc3c(-c4ccccc4Cl)cn(-c4ccc(F)cn4)c3c2)CCS(=O)(=O)C1` (single isomer, unassigned; enantiomer b) [Example 14-B, 3-(2-chlorophenyl)-1-(5-fluoropyridin-2-yl)-N-(3-methyl-1,1-dioxidotetrahydrothiophen-3-yl)-1H-indole-6-carboxamide (Enantiomer B, Slow)] yielded an IC50 of 9.8 nM.
For the compound `CC1(NC(=O)c2ccc3c(-c4cncc(OC(F)F)c4)cn(-c4ccc(F)cc4)c3c2)CCS(=O)(=O)C1` (racemic) [Example 25, 3-(5-(difluoromethoxy)pyridin-3-yl)-1-(4-fluorophenyl)-N-(3-methyl-1,1-dioxidotetrahydrothiophen-3-yl)-1H-indole-6-carboxamide (racemic)], the IC50 amounted to 0.77 nM.
The compound `O=C(NC1CCS(=O)(=O)C1)c1ccc2c(-c3c(Cl)cccc3Cl)cn(-c3ccc(F)cc3)c2c1` (racemic) [Example 47, 3-(2,6-dichlorophenyl)-N-(1,1-dioxidotetrahydrothiophen-3-yl)-1-(4-fluorophenyl)-1H-indole-6-carboxamide (racemic)] came in with an IC50 of 942 nM.
In the case of `CC(C)(CN1CCOCC1)NC(=O)c1ccc2c(-c3ccccc3Cl)cn(-c3ccc(F)cc3)c2c1` [Example 4, 3-(2-chlorophenyl)-1-(4-fluorophenyl)-N-(2-methyl-1-morpholinopropan-2-yl)-1H-indole-6-carboxamide] it was 629 nM.
Then `O=C(NC1CCS(=O)(=O)C1)c1ccc2c(-c3cccc(F)c3)cn(-c3ccc(F)cc3)c2c1` (racemic) [Example 35, N-(1,1-dioxidotetrahydrothiophen-3-yl)-3-(3-fluorophenyl)-1-(4-fluorophenyl)-1H-indole-6-carboxamide (racemic)], with 101 nM.
Then `O=C(NC1CCS(=O)(=O)C1)c1ccc2c(-c3ccccc3Cl)cn(-c3ccc(F)cc3)c2c1` (single isomer, unassigned) [Example 2-A, 3-(2-chlorophenyl)-N-(1,1-dioxidotetrahydrothiophen-3-yl)-1-(4-fluorophenyl)-1H-indole-6-carboxamide], with 171 nM; and `CC1(NC(=O)c2ccc3c(-c4cccc(C5CC5)c4)cn(-c4ccc(F)cn4)c3c2)CCS(=O)(=O)C1` (single isomer, unassigned; enantiomer a) [Example 12-A, 3-(3-cyclopropylphenyl)-1-(5-fluoropyridin-2-yl)-N-(3-methyl-1,1-dioxidotetrahydrothiophen-3-yl)-1H-indole-6-carboxamide (enantiomer A)], with 0.79 nM.
`O=C(NC1CCS(=O)(=O)C1)c1ccc2c(-c3cccc(-c4ccccc4)c3)cn(-c3ccc(F)cc3)c2c1` (racemic) [Example 36, 3-biphenyl-3-yl-N-(1,1-dioxidotetrahydrothiophen-3-yl)-1-(4-fluorophenyl)-1H-indole-6-carboxamide (racemic)]: the IC50 stood at 61 nM.
In the case of `CC1(NC(=O)c2ccc3c(-c4ccccc4Cl)c(C#N)n(-c4ccc(F)cc4)c3c2)CCS(=O)(=O)C1` (single isomer, unassigned; enantiomer b) [Example 9-B, 3-(2-chlorophenyl)-2-cyano-1-(4-fluorophenyl)-N-(3-methyl-1,1-dioxidotetrahydrothiophen-3-yl)-1H-indole-6-carboxamide (Enantiomer B)] it was 235 nM.
In the case of `Cn1cc(-c2cn(-c3ccc(F)cc3)c3cc(C(=O)NC4CCS(=O)(=O)C4)ccc23)cn1` (racemic) [Example 54, N-(1,1-dioxidotetrahydrothiophen-3-yl)-1-(4-fluorophenyl)-3-(1-methyl-1H-pyrazol-4-yl)-1H-indole-6-carboxamide (racemic)] it was 345 nM; in that of `CC1(NC(=O)c2ccc3c(-c4ccccc4Cl)cn(-c4ncc(F)cn4)c3c2)CCS(=O)(=O)C1` (single isomer, unassigned; enantiomer a) [Example 15-A, 3-(2-chlorophenyl)-1-(5-fluoropyrimidin-2-yl)-N-(3-methyl-1,1-dioxidotetrahydrothiophen-3-yl)-1H-indole-6-carboxamide (enantiomer A, fast)], 78 nM.
In the case of `O=C(NC1CCS(=O)(=O)C1)c1ccc2c(-c3cccnc3)cn(-c3ccc(F)cc3)c2c1` (racemic) [Example 52, N-(1,1-dioxidotetrahydrothiophen-3-yl)-1-(4-fluorophenyl)-3-pyridin-3-yl-1H-indole-6-carboxamide (racemic)] it was 129 nM; in that of `CC(=O)Nc1cccc(-c2cn(-c3ccc(F)cc3)c3cc(C(=O)NC4CCS(=O)(=O)C4)ccc23)c1` (racemic) [Example 37, 3-[3-(acetylamino)phenyl]-N-(1,1-dioxidotetrahydrothiophen-3-yl)-1-(4-fluorophenyl)-1H-indole-6-carboxamide (racemic)], 163 nM.
